According to patent US20060063930A1, “Compositions and methods comprising proteinase activated receptor antagonists” (priority 2004, published 2006):
Counter-ions that a name gives are not always drawn. Where no end group is shown, it is not given here. [ ]: non-standard residue; d: D form. Sta = CC(C)C[C@H](N)[C@@H](O)CC(=O)O; Nip = nipecotic acid residue; Orn = NCCC[C@H](N)C(=O)O; Dab = NCC[C@H](N)C(=O)O; Imid = not defined here; Dap = NC[C@H](N)C(=O)O

The molecules below were run on PAR-2 (assay: Inhibition of PAR-2 activating peptide (AP2) calcium signaling in cells pretreated with antagonist). Settings: mimetic antagonists; AUC of calcium mobilization treated/control; initially screened at 1 mM compound.
Assay type: cell-based, human
Parameters: key to PAR-2 AP2 Signaling Treated/Control (T/C) / PAR-2 AP2 Signaling Treated/Control: AUC of calcium mobilization, treated ÷ control wells
Method: In order to assess the potential of peptides and molecules selected above to block PAR-2 signaling, cells were pretreated with potential antagonist peptides for a predetermined amount of time and were subsequently treated with various GPCR agonists. Confluent Lewis lung carcinoma (LLC) cells were loaded for 30-60 minutes with the fluorescent dye Fluo-4. Final concentration 4 uM Fluo-4, 0.02% pluronic acid in physiological buffer. Cells were then washed with assay buffer, (HBSS containing 1 mM CaCl2, 1 mM MgSO4, and 2.5 mM probenecid). Cells were stimulated with various doses of PAR-2 activating peptide, PAR-1 activating peptide or ATP. Fluorescence was monitored using a Wallac 1470 fluorescent plate reader. (See Al-ani et. al Journal of Pharmacology and Experimental Therapeutics 290:2, 753-760). Additional compound screening was performed using U87-MG human glioma cells. In this assay cells were labeled with FLIPR Calcium 3 dye (Component A), which was dissolved in 10 mls of Assay Buffer without Probenecid. Loading buffer was prepared by diluting Component A with an additional 90 mls of Assay Buffer without Probenecid, giving a total volume of a 100 ml. For plate loading, 11 mls of FLIPR Calcium 3 dye (Component A) is placed into a 15 ml conical tube+110 μl of 250 mM Probenecid, at a final in-well working volume of 2.5 mM. Finally, 50 μl of Calcium 3 dye was added wells containing 100 μl media, and incubated 1 hr, 37° C., 5% CO2. Calcium signaling was then measured using a Flexstation II (Molecular Devices) following manufacturer's instructions.
Potential antagonist compounds were initially screened at 1 mM compound concentration. Those compounds with activity were then subjected to additional confirmatory testing. Activity is reported as treated/controlled (T/C) where the area under the curve (AUC) of calcium mobilization plots in treated wells is divided by the AUC of calcium mobilization plots in control wells to generate a measure of inhibition.
In the case of `Cl.N[C@H]1CC[C@H](C(=O)N2CCN(C(=O)CC3CCCCC3)CC2)C1` [ENMD-1779, N1-2-cyclohexylethanoyl-N-4-(1R,3R)-1-amino-cyclopentane-3-carbonyl piperazine hydrochloride], the “PAR-2 AP2 Signaling Treated/Control” value is reported as 0.89. `CC(C)CC(=O)N1CC2CN(C(=O)Cc3ccc(N)cc3)CC2C1` (stereo not shown) [ENMD-1763] was tested, and the “PAR-2 AP2 Signaling Treated/Control” value was 0.83. With `CC(C)CC(=O)N1CCOC(C(=O)NCCCCCCN)C1` (stereo not shown) [ENMD-1522, 4-(3-Methyl-butyryl)-morpholine-2-carboxylic acid (6-amino-hexyl)-amide] the “PAR-2 AP2 Signaling Treated/Control” value was 1.00. In the case of `CC(C)CC(=O)N1CCN(C(=O)Cc2cnc[nH]2)CC1` [ENMD-1066, 1-(4-(2-(1H-imidazol-4-yl)acetyl)piperazin 1-yl)-3-methylbutan-1-amide hydrochloride], the “PAR-2 AP2 Signaling Treated/Control” value is reported as 0.20. With `NCCCCCNc1cnc(C(=O)NCC2CCCCC2)cn1` [ENMD-1775, cyclohexylmethyl-6-(5-aminopentaneamino)-2-pyrazine amide] the “PAR-2 AP2 Signaling Treated/Control” value was 0.90. With `NCCCCCC(=O)N1CCN(C(=O)Cc2ccccc2)CC1` [ENMD-1078, N^1-(2-phenylethanoyl)-N^4-(6-aminohexanoyl)piperazine] the “PAR-2 AP2 Signaling Treated/Control” value was 0.42. For `CC(C)CCc1cn(CCCCCCN)nn1` [ENMD-1519, 1-(6-aminohexyl)-4-(3-methylbutyl)-1,2,3-triazole], the “PAR-2 AP2 Signaling Treated/Control” value was 0.65. For `CC(C)Nc1ccc(CCn2c(=O)n(CCC3CCCCC3)c3ccccc32)cc1` [ENMD-1564, 1-[4-(isopropylamine)-phenethyl]-3-(2-cyclo-hexylethyl)-1H-benzo[d]imidazole-2(3H)-one], the “PAR-2 AP2 Signaling Treated/Control” value was 1.16. With `COC(=O)CCCCC(=O)N1CCN(C(=O)CC(C)C)CC1` [ENMD-1402, Methyl 6-(4-(3-methylbutanoyl)piperazin-1-yl)-6-oxohexanoate] the “PAR-2 AP2 Signaling Treated/Control” value was 0.64. In the case of `CC(C)CCCC(=O)N1CCN(C(=O)CCCCCN)CC1` [ENMD-1038, N^1-[5′-methylhexanoyl]-N^4-[6′-aminohexanoyl]-piperazine], the “PAR-2 AP2 Signaling Treated/Control” value is reported as 0.35. With `CC(C)CCC(=O)N1CCN(C(=O)CCCCCN)CC1` [ENMD-1041, N^1-[4′-methylpentanoyl]-N^4-[6′-aminohexanoyl]-piperazine] the “PAR-2 AP2 Signaling Treated/Control” value was 0.17. With `Nc1ccc(CC(=O)N2CCN(C(=O)Cc3ccccc3)CC2)cc1` [ENMD-1075, N^1-2-phenylethanoyl-N^4-[2-(4-aminophenyl)-ethanoyl]-piperazine] the “PAR-2 AP2 Signaling Treated/Control” value was 0.71. For `NCCCCCC(=O)NCCNC(=O)CC1CCCCC1` [ENMD-1417, N-(2-(2-cyclohexylacetamido)ethyl)-6-aminohexan-amide], the “PAR-2 AP2 Signaling Treated/Control” value was 0.38. With `NCCCCCCNC(=O)C1CN(C(=O)CC2CCCCC2)CCO1` (stereo not shown) [ENMD-1521, 4-(2-Cyclohexyl-acetyl)-morpholine-2-carboxylic acid (6-amino-hexyl)-amide] the “PAR-2 AP2 Signaling Treated/Control” value was 1.01. `CC(C)CNC(=O)C1CN(C(=O)CCCCCN)CCO1` (stereo not shown) [ENMD-1524, 4-(6-Amino-hexanoyl)-morpholine-2-carboxylic acid isobutyl-amide] was tested, and the “PAR-2 AP2 Signaling Treated/Control” value was 0.73. With `CC(C)CCN1C(C(=O)NCCCCCCN)CCS1(=O)=O` (stereo not shown) [ENMD-1539, N-(isoamyl)isothiasolidine-1,1-dioxide-3-carboxylic acid-6-aminohexylamide] the “PAR-2 AP2 Signaling Treated/Control” value was 0.25. For `NCCCCCC(=O)N1CCN(C(=O)CC2CCCCC2)CC1` [ENMD-1073, N′-(2-cyclohexylethanoyl)-N^4-(6-aminohexanoyl)piperazine], the “PAR-2 AP2 Signaling Treated/Control” value was 0.56. In the case of `CC(C)CC(=O)Nc1ccc(NC(=O)CCCCCN)cc1` [ENMD-1391, N-(4-(3-methylbutanamido)phenyl)-6-aminohexanamide], the “PAR-2 AP2 Signaling Treated/Control” value is reported as 0.01. `Cl.O=C(CC1CCCCC1)Nc1ccc(NC(=O)C2CCNCC2)cc1` [ENMD-1772, N-(4-(2-cyclohexylacetamido)phenyl) piperidine-4-carboxamide hydrochloride] was tested, and the “PAR-2 AP2 Signaling Treated/Control” value was 0.73. In the case of `NCCCCCCn1cc(CCC2CCCCC2)nn1` [ENMD-1520, 1-(6-aminohexyl)-4-(2-cyclohexylethyl)-1,2,3-triazole], the “PAR-2 AP2 Signaling Treated/Control” value is reported as 0.36. With `CC(C)COc1ccc(C(=O)NCCCCN)cc1` [ENMD-1405, N-(4-aminobutyl)-4-isobutoxy-benzamide] the “PAR-2 AP2 Signaling Treated/Control” value was 0.13. `O=C(Cc1cccnc1)N1CCN(C(=O)CC2CCCCC2)CC1` [ENMD-1074, 1-(4-(2-cyclohexylacetyl)piperazin-1-yl)-2-(pyridin-3-yl)-acetaldehyde] was tested, and the “PAR-2 AP2 Signaling Treated/Control” value was 0.35. With `Cl.NC1CCC(C(=O)Nc2ccc(NC(=O)CC3CCCCC3)cc2)C1` (stereo in doubt) [ENMD-1768, (1R,3S)-N-(4-(2-cyclohexylacetamido)phenyl)-3-aminocyclopentanecarboxamide hydrochloride] the “PAR-2 AP2 Signaling Treated/Control” value was 0.10. With `CC(C)C(=O)N1CCN(C(=O)CCCCCN)CC1` [ENMD-1035, N′-[2′-methylpropanoyl]-N^4-[6′-aminohexanoyl]-piperazine] the “PAR-2 AP2 Signaling Treated/Control” value was 0.32. For `N=C(N)NCCCCCC(=O)N1CCN(C(=O)Cc2ccccc2)CC1` [ENMD-1077, 4-phenylacetoyl-piperazin-1-(5′-carbamoyl-pentylguanidine)], the “PAR-2 AP2 Signaling Treated/Control” value was 0.80. `CC(C)CC(=O)NCCNC(=O)Cc1ccc(N)cc1.Cl` [ENMD-1416, N-(2-(2-(4-aminophenyl)acetamido)ethyl)-3-methylbutan-amide hydrochloride] was tested, and the “PAR-2 AP2 Signaling Treated/Control” value was 0.48. In the case of `Br.CC(C)CC(=O)NCCNC(=O)CCCCCN` [ENMD-1393, N-(2-(3-methylbutanamido)ethyl)-6-aminohexan-amide hydrobromide], the “PAR-2 AP2 Signaling Treated/Control” value is reported as 0.81. In the case of `CC(C)CNC(=O)[C@@H]1CC[C@@H](NC(=O)CCCCCN)C1` [ENMD-1504, N-isobutyl-3R-(6-aminohexanamido)-cyclopentane-1R-carboxamide], the “PAR-2 AP2 Signaling Treated/Control” value is reported as 0.71. For `NCCCCC(=O)Nc1ccc(C(=O)NCC2CCCCC2)cc1` [ENMD-1568, 4-(5-aminopentanamide)-N-(cyclohexylmethyl)-benzamide], the “PAR-2 AP2 Signaling Treated/Control” value was 0.92. `CC(C)CNC(=O)c1ccc(NCCCCN)nc1` [ENMD-1562, 6-(4-aminobutylamine)-3-(isobutyl)-nicotinoyl amide] was tested, and the “PAR-2 AP2 Signaling Treated/Control” value was 0.57. In the case of `CC(C)CNC(=O)c1ccc(-c2ccc(NC(=O)CCCCCN(C)C)cc2)cc1` [ENMD-1529, 4′-(6-Dimethylamino-hexanoylamino)-biphenyl-4-carboxylic acid isobutyl-amide], the “PAR-2 AP2 Signaling Treated/Control” value is reported as 0.35. With `CC(C)CNC(=O)c1ccc(OCCCN)cc1` [ENMD-1410, 4-(3-aminopropoxy)-N-isobutyl-benzamide] the “PAR-2 AP2 Signaling Treated/Control” value was 0.55. For `NCCCCNC(=O)c1ccc(NC(=O)C2CCCCC2)cc1` [ENMD-1511, N-(4-aminobutyl)-4-(cyclohexanecarboxamido)-benzamide hydrochloride], the “PAR-2 AP2 Signaling Treated/Control” value was 0.13.

Same assay, conditions: mimetic antagonists; AUC of calcium mobilization treated/control; initially screened at 1 mM compound; hydrochloride
`CC(C)CC(=O)Nc1nc(CC(=O)NCCCCCN)cs1` [ENMD-1561, N-{4-[(5-Amino-pentylcarbamoyl)-methyl]-thiazol-2-yl}-3-methyl-butyramide hydrochloride] was tested, and the “PAR-2 AP2 Signaling Treated/Control” value was 0.89.

Same assay, conditions: peptides; AUC of calcium mobilization treated/control; initially screened at 1 mM compound
In the case of L-Sta-GK (L[Sta]GK) [ENMD-1057], the “PAR-2 AP2 Signaling Treated/Control (T/C)” value is reported as 1.40. In the case of “IG-Dab (Ile-Gly-[Dab]) [ENMD-1024, Dab=diamino butanoic acid]”, the “PAR-2 AP2 Signaling Treated/Control (T/C)” value is reported as 0.27. With IG-dK (Ile-Gly-[dK]) [ENMD-1087] the “PAR-2 AP2 Signaling Treated/Control (T/C)” value was 0.33. With LIGY [ENMD-1051] the “PAR-2 AP2 Signaling Treated/Control (T/C)” value was 0.83. In the case of “L-Imid-GK (L[Imid]GK; reading uncertain; also: printed as L-Imid-GK) [ENMD-1063]”, the “PAR-2 AP2 Signaling Treated/Control (T/C)” value is reported as 0.94. LIG-Dab (LIG[Dab]) [ENMD-1026] was tested, and the “PAR-2 AP2 Signaling Treated/Control (T/C)” value was 0.23. For LIGK-amide (LIGK-NH2) [ENMD-1020], the “PAR-2 AP2 Signaling Treated/Control (T/C)” value was 0.54. LIG-Dap (LIG[Dap]) [ENMD-1027] was tested, and the “PAR-2 AP2 Signaling Treated/Control (T/C)” value was 0.30. In the case of L-Nip-GK (L[Nip]GK) [ENMD-1059], the “PAR-2 AP2 Signaling Treated/Control (T/C)” value is reported as 0.97. In the case of “LIG-Orn (LIG[Orn]) [ENMD-1028, Orn=ornithine]”, the “PAR-2 AP2 Signaling Treated/Control (T/C)” value is reported as 0.36. In the case of “L-Imid-K (Leu-[Imid]-Lys; reading uncertain; also: printed as L-Imid-K) [ENMD-1062]”, the “PAR-2 AP2 Signaling Treated/Control (T/C)” value is reported as 0.94. In the case of LIGR [ENMD-1022], the “PAR-2 AP2 Signaling Treated/Control (T/C)” value is reported as 0.26. For IG-Orn (Ile-Gly-[Orn]) [ENMD-1029], the “PAR-2 AP2 Signaling Treated/Control (T/C)” value was 0.42. In the case of LIGD [ENMD-1045], the “PAR-2 AP2 Signaling Treated/Control (T/C)” value is reported as 0.39. In the case of L-NiP-K (Leu-[Nip]-Lys) [ENMD-1058], the “PAR-2 AP2 Signaling Treated/Control (T/C)” value is reported as 1.58.
